Results from patent publication US8653275B2, “Bis-quaternary ammonium cyclophane compounds that interact with neuronal nicotinic acetylcholine receptors” (University of Kentucky Research Foundation, priority 2006, dated 2014).

Assays:
[1] = target: T1, Rat striatal nicotinic receptors ([3H]MLA binding) (Rattus norvegicus, UniProt Q05941); experiment: Inhibition of [3H]methyllycaconitine (MLA) binding; conditions: for Inhibition of [3H]MLA Binding: % inhibition at 100 nM analog, 2.5 nM [3H]MLA, nonspecific binding with 1 μM nicotine (footnote b)
T1 construct: Whole brain, excluding cortex and cerebellum, was homogenized; from tissue; host or cells: rat brain membranes (whole brain excluding cortex and cerebellum)
Method: Whole brain, excluding cortex and cerebellum, was homogenized in 20 vol of ice-cold buffer, containing (in mM): 2 HEPES, 11.8 NaCl, 0.48 KCl, 0.25 CaCl2 and 0.12 MgSO4, pH 7.5. Homogenate was centrifuged (25,000 g, 15 min, 4° C.). Pellets were resuspended in 20 vol buffer and incubated at 37° C., for 10 min, cooled to 4° C. and centrifuged (25,000 g, 15 min, 4° C.). Pellets were resuspended and centrifuged using the same conditions. Final pellets were stored in assay buffer, containing (in mM): 20 HEPES, 118 NaCl, 4.8 KCl, 2.5 CaCl2, and 1.2 MgSO4, pH 7.5 at −70° C. Upon use, final pellets were resuspended in ˜20 vol assay buffer. […] Control was in the absence of analog. […] Incubations proceeded for 60 min at room temperature using 96-well plates and were terminated by harvesting on Unifilter-96 GF/B filter plates presoaked in 0.5% polyethylenimine, using a Packard FilterMate harvester. After washing 5 times with 350 μl ice-cold assay buffer, filter plates were dried (60 min, 4° C.), bottom-sealed, and filled with Packard's MicroScint 20 cocktail (40 μl/well). After 60 min, filter plates were top-sealed, and radioactivity determined using a Packard TopCount. Protein concentrations were determined using the Bradford dye-binding procedure bovine serum albumin as the standard.

[2] = tested on: nicotine-evoked [3H]DA release, rat striatal slices; experiment: Inhibition of nicotine-evoked [3H]dopamine release from superfused rat striatal slices; assay type: cell-based; conditions: 100 nM analog superfused 60 min before nicotine (10 μM)
Method: Rat striatal slices (500 μm thickness, 6-8 mg wet weight) were incubated for 30 minutes in Krebs buffer (118 mM NaCl, 4.7 mM KCl, 1.2 mM MgCl2, 1.0 mM NaH2PO4, 1.3 mM CaCl2, 11.1 mM glucose, 25 mM NaHCO3, 0.11 mM L-ascorbic acid, and 0.004 mM disodium EDTA; pH 7.4, and saturated with 95% O2/5% CO2) in a metabolic shaker at 34° C. Slices were rinsed with 15 mL of fresh buffer and incubated for an additional 30 minutes in fresh buffer containing 0.1 μM [^3H]dopamine (DA; 6 slices/3 mL). Subsequently, slices were rinsed with 15 mL of fresh buffer and transferred to a glass superfusion chamber. Slices were superfused (1.0 mL/min) for 60 minutes with Krebs buffer containing nomifensine (10 μM) and pargyline (10 μM) and maintained at 34° C., pH 7.4, with continual aeration (95% O2/5% CO2). Two five minute samples (5 mL each) were collected to determine basal outflow of [^3H]DA. The bis-quaternary ammonium cyclophane analogs were added to the superfusion buffer after the collection of the second sample and remained in the buffer until 12 consecutive five minute samples were collected. […] At the end of the experiment, each slice was solubilized and the [^3H] content of the tissue determined.
Radioactivity in the superfusate and tissue samples was determined by liquid scintillation spectroscopy. Fractional release for tritium collected in each sample was divided by the total tritium present in the tissue at the time of sample collection and was expressed as a percentage of total tritium. Basal [^3H]outflow was calculated from the average of the tritium collected in the two five minute samples just before addition of the quaternary ammonium analog. […] [^3H]Overflow was calculated by subtracting the [^3H]outflow during an equivalent period of prestimulation from the values in samples collected during and after drug exposure. […]
The bis-quaternary ammonium cyclophane analogs were also evaluated for their ability to inhibit nicotine evoked [^3H]DA release. […] Antagonist activity was evaluated by comparing the nicotine evoked [^3H]overflow in the absence and presence of the analogs. […]

[3] = target: T2, Rat striatal nicotinic receptors ([3H]nicotine binding) (Rattus norvegicus, UniProt P09483+P12390); experiment: Inhibition of [3H]nicotine binding; conditions: 3 nM [3H]nicotine; for Inhibition of [3H]Nicotine binding: % inhibition at 100 nM analog, nonspecific binding with 10 μM cytisine
T2 construct: Whole brain, excluding cortex and cerebellum, was homogenized; from tissue; host or cells: rat brain membranes (whole brain excluding cortex and cerebellum)
Method: Whole brain, excluding cortex and cerebellum, was homogenized in 20 vol of ice-cold buffer, containing (in mM): 2 HEPES, 11.8 NaCl, 0.48 KCl, 0.25 CaCl2 and 0.12 MgSO4, pH 7.5. Homogenate was centrifuged (25,000 g, 15 min, 4° C.). Pellets were resuspended in 20 vol buffer and incubated at 37° C., for 10 min, cooled to 4° C. and centrifuged (25,000 g, 15 min, 4° C.). Pellets were resuspended and centrifuged using the same conditions. Final pellets were stored in assay buffer, containing (in mM): 20 HEPES, 118 NaCl, 4.8 KCl, 2.5 CaCl2, and 1.2 MgSO4, pH 7.5 at −70° C. Upon use, final pellets were resuspended in ˜20 vol assay buffer. Samples (250 μl) contained 100-140 μg of membrane protein, 3 nM [^3H]nicotine or 3 nM [^3H]methyllycaconitine (MLA), and bis-quaternary ammonium cyclophane analog (100 nM) in assay buffer containing 50 mM Tris. Control was in the absence of analog. In [^3H]nicotine and [^3H]methyllycaconitine binding assays, nonspecific binding was determined in the presence of 10 μM cytisine and 10 μM nicotine, respectively. Incubations proceeded for 60 min at room temperature using 96-well plates and were terminated by harvesting on Unifilter-96 GF/B filter plates presoaked in 0.5% polyethylenimine, using a Packard FilterMate harvester. After washing 5 times with 350 μl ice-cold assay buffer, filter plates were dried (60 min, 4° C.), bottom-sealed, and filled with Packard's MicroScint 20 cocktail (40 μl/well). After 60 min, filter plates were top-sealed, and radioactivity determined using a Packard TopCount. Protein concentrations were determined using the Bradford dye-binding procedure bovine serum albumin as the standard.

BBB choline transporter = experiment: Affinity for the BBB choline transporter; assay type: binding
[4] = full concentration effect evaluated

T1 sequence (Q05941 23-502): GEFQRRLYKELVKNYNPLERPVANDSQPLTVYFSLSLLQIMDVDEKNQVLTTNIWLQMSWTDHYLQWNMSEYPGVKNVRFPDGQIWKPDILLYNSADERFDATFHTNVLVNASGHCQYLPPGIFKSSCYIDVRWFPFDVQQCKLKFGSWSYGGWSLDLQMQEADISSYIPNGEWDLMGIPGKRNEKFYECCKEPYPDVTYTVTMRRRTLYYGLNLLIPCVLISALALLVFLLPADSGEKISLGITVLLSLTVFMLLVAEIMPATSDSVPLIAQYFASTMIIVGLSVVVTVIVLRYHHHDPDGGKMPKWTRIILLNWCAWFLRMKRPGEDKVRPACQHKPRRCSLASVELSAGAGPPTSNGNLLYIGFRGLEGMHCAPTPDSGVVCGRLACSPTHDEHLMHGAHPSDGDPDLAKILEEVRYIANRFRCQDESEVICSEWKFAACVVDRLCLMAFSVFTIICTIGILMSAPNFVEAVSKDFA
T2 sequence (P09483 31-630): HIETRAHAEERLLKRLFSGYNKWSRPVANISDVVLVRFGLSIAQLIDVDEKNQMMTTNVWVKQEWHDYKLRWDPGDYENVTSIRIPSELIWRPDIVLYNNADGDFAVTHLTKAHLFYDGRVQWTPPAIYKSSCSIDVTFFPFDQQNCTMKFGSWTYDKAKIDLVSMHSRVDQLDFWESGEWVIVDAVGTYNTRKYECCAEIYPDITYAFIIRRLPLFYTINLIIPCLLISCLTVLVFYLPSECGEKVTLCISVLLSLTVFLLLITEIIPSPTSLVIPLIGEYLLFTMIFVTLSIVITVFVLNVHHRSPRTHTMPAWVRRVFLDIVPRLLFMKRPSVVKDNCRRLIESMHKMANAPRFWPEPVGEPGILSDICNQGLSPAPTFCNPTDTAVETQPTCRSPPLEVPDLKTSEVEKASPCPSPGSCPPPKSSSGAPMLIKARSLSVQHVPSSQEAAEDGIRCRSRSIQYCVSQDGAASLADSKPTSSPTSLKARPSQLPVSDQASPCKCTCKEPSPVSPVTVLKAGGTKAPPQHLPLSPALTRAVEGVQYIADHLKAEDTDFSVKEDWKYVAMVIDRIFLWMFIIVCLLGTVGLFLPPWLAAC
T2 sequence (P12390 25-500): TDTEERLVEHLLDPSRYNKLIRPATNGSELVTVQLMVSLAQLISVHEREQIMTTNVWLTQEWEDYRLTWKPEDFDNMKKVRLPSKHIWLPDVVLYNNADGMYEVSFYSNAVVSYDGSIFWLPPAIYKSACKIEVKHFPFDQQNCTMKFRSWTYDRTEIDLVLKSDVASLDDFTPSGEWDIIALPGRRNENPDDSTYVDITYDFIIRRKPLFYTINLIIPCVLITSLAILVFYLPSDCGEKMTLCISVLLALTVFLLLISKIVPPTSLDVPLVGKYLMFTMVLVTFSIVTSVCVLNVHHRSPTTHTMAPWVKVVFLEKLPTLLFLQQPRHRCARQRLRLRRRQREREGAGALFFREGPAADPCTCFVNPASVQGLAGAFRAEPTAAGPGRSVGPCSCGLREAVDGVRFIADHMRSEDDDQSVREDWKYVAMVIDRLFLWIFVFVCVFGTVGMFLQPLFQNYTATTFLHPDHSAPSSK

SMILES | Inhibition of [3H]MLA Binding [1] | Inhibition of Nicotine-evoked [3H]DA release [2] | Inhibition of [3H]Nicotine binding [3] | Ki (BBB choline transporter) | Ki [1, 4] | Ki [3, 4]
c1cc2c[n+](c1)CCCCCCCCCCCCc1ccc[n+](c1)CCCCCCCCCCCC2 [N,3′-(1,12-dodecanediyl)-3,N′-(1,12-dodecanediyl)-bis-pyridinium dibromide] | 0% | 20% | 2% |  |  | 
C1#Cc2ccc[n+](c2)CCCCCCCC[n+]2cccc(c2)C#CCCCCCC1.[I-].[I-] [N,N′-(1,8-octanediyl)-3,3′-(1,9-decanediyn-1,10-diyl)-bis-pyridinium diiodide] | 0% |  | 9% |  |  | 
C1#Cc2ccc[n+](c2)CCCCCCCCCCC[n+]2cccc(c2)C#CCCCCCC1.[Br-].[Br-] [N,N′-(1,11-undecanediyl)-3,3′-(1,9-decanediyn-1,10-diyl)-bis-pyridinium dibromide] | 3% |  | 11% | 15.2 µM |  | 
C1#Cc2ccc[n+](c2)CCCCCC[n+]2cccc(c2)C#CCCCCCC1.[I-].[I-] [N,N′-(1,6-hexanediyl)-3,3′-(1,9-decanediyn-1,10-diyl)-bis-pyridinium diiodide] | 2% |  | 7% | 33.6 µM |  | 
C1#Cc2ccc[n+](c2)CCCCCCCCC[n+]2cccc(c2)C#CCCCCCC1.[Br-].[Br-] [N,N′-(1,9-nonanediyl)-3,3′-(1,9-decanediyn-1,10-diyl)-bis-pyridinium dibromide] | 3% |  | 0% | 1.4 µM |  | 
c1cc2c[n+](c1)CCCC[n+]1cccc(c1)CCCCCCCCCCCC2 [N,N′-(1,4-butanediyl)-3,3′-(1,12-dodecanediyl)-bis-pyridinium diiodide] | 3.0 ± 3.0% | 23% | 14 ± 2.6% |  |  | 
C1#Cc2ccc[n+](c2)CCCCCCCCCC[n+]2cccc(c2)C#CCCCCCC1 [N,N′-(1,10-decanediyl)-3,3′-(1,9-decanediyn-1,10-diyl)-bis-pyridinium diiodide] |  | 19% |  | 0.8 µM | 4.64 µM | 0.55 µM
